In BindingDB's records for PubMed 37487305 (Zhengzhou University):

Target: Histone deacetylase 1 (Homo sapiens, UniProt Q13547)
Assay: Inhibition of HDAC1 (unknown origin) by fluorescence based microplate reader assay

Sequence of Histone deacetylase 1 (Q13547 whole entry): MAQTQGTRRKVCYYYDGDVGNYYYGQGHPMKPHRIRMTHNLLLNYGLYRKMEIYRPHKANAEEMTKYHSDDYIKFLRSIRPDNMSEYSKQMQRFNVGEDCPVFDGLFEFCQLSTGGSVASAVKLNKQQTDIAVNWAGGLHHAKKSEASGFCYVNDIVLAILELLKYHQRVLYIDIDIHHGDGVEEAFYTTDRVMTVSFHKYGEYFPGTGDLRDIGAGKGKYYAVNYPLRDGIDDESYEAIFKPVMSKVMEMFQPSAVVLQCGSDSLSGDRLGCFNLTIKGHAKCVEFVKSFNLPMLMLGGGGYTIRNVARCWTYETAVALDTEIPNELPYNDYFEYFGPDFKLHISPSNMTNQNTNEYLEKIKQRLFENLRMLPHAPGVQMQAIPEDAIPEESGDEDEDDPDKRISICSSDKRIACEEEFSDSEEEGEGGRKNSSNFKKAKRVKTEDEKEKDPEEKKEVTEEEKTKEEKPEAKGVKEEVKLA

IC50: 160 nM
Structure (SMILES): CN1c2ccccc2C(=O)N2[C@H](C(=O)Nc3ccc(C(=O)Nc4ccccc4N)cc3)Cc3c([nH]c4ccccc34)[C@@H]12
